Experiment [1] is filed under the species Homo sapiens. Kind of experiment: Selectivity for ERbeta over ERalpha.
Experiment [2] addresses Estrogen receptor alpha (Homo sapiens) (UniProt P03372). Kind of experiment: Binding affinity to human ERalpha relative to estradiol by radiometric binding assay.
Experiment [3] concerns the target Estrogen receptor beta (Homo sapiens) (UniProt Q92731). Kind of experiment: Binding affinity to human ERbeta relative to estradiol by radiometric binding assay.

Structures are written as SMILES.

Chain of Estrogen receptor beta (Homo sapiens) (Q92731 whole entry, looked up): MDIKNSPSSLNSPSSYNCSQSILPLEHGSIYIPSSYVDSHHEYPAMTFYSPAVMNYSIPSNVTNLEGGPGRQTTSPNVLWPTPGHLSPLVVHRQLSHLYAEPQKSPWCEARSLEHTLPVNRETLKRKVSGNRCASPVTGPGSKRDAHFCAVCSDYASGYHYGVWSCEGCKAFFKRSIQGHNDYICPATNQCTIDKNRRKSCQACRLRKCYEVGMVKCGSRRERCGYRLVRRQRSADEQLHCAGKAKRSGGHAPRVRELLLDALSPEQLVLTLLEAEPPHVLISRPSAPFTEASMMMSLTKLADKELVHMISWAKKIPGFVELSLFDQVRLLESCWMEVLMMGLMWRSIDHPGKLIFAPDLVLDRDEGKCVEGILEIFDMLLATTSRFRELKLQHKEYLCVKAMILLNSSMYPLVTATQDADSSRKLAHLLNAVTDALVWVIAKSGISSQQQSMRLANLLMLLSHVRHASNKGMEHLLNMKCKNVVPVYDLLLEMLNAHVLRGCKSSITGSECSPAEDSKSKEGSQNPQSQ
Chain of Estrogen receptor alpha (Homo sapiens) (P03372 whole entry, looked up): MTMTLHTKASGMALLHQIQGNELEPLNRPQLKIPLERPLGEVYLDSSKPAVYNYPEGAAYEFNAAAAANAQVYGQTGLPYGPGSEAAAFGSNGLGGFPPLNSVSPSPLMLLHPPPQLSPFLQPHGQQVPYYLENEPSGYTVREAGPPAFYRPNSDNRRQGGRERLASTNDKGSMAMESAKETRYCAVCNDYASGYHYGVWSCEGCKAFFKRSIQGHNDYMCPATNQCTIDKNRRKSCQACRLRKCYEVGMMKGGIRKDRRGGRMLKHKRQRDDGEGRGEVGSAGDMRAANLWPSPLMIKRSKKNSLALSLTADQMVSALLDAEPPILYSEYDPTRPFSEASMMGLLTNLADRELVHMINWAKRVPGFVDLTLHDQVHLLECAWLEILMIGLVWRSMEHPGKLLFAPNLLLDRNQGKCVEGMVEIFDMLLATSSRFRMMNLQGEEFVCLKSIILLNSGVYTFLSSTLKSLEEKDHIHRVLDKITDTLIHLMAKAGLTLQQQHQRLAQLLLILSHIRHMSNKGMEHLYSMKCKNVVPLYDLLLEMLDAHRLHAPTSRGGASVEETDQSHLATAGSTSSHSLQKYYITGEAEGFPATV

With `OCCC1CCCC(=C(c2ccc(O)cc2)c2ccc(O)cc2)C1` (configuration not stated), in experiment [1], the Ratio amounted to 1.7. Also, the values for the relative binding affinity (RBA) in experiment [2] and in experiment [3] were 33.9 and 57.6, respectively.

As to `COC(=O)CC1CCC(=C(c2ccc(O)cc2)c2ccc(O)cc2)CC1` (configuration not stated), the Ratio in experiment [1] turned out to be 0.16. Further, the relative binding affinity (RBA) came to 10.7 in experiment [2] and 1.72 in experiment [3].

Regarding `Oc1ccc(C(=C2CCCC(CCF)C2)c2ccc(O)cc2)cc1` (configuration not stated), the Ratio in experiment [1] turned out to be 1.1. Moreover, the values for the relative binding affinity (RBA) in experiment [2] and in experiment [3] were 122 and 129, respectively.

Regarding `OCC1CCCC(=C(c2ccc(O)cc2)c2ccc(O)cc2)C1` (configuration not stated), the Ratio in experiment [1] worked out at 1.6. Moreover, the relative binding affinity (RBA) amounted to 24.8 in experiment [2] and 39.6 in experiment [3].

As to `CCOCC1CCC(=C(c2ccc(O)cc2)c2ccc(O)cc2)CC1` (configuration not stated), the Ratio in experiment [1] amounted to 0.58. For the same molecule, the relative binding affinity (RBA) in experiment [2] was found to be 4.88; in experiment [3], 2.82.

`OCCCC1CCCC(=C(c2ccc(O)cc2)c2ccc(O)cc2)C1` (configuration not stated): the Ratio in experiment [1] was found to be 0.98. For the same molecule, the results for the relative binding affinity (RBA) in experiment [2] and in experiment [3] were 47.2 and 46.1, respectively.

As to `Oc1ccc(C(=C2CCC(F)CC2)c2ccc(O)cc2)cc1` (configuration not stated), the Ratio in experiment [1] is 2.3. Besides, the relative binding affinity (RBA) in experiment [2] was 27; in experiment [3] it was 61.8.

As to `COC(=O)C(C(=O)OC)C1CCCC(=C(c2ccc(O)cc2)c2ccc(O)cc2)C1` (configuration not stated), the Ratio in experiment [1] is 0.012. The figures for the relative binding affinity (RBA) in experiment [2] and in experiment [3] were 19.5 and 0.234, respectively.

For the molecule `COC(=O)CC1CCCC(=C(c2ccc(O)cc2)c2ccc(O)cc2)C1` (configuration not stated), the Ratio in experiment [1] was 0.18. Moreover, the relative binding affinity (RBA) was 58.5 in experiment [2] and 10.3 in experiment [3].

For the molecule `Oc1ccc(C(=C2CCC(O)CC2)c2ccc(O)cc2)cc1` (configuration not stated), the Ratio in experiment [1] came out at 0.94. Besides, the relative binding affinity (RBA) in experiment [2] was 0.327; in experiment [3], 0.307.

Turning to `Oc1ccc(C(=C2CCCCCC2)c2ccc(O)cc2)cc1`, the Ratio in experiment [1] was determined as 3.2. In addition, the relative binding affinity (RBA) in experiment [2] stood at 110; in experiment [3], 354.

With `CCOC(=O)C1CCC(=C(c2ccc(O)cc2)c2ccc(O)cc2)CC1` (configuration not stated), in experiment [1], the Ratio amounted to 0.45. In addition, the relative binding affinity (RBA) in experiment [2] worked out at 6.77; in experiment [3], 3.02.

On to `CCC1CCC(=C(c2ccc(O)cc2)c2ccc(O)cc2)CC1` (configuration not stated), for which, in experiment [1], the Ratio turned out to be 1.2. The relative binding affinity (RBA) turned out to be 62.7 in experiment [2] and 75.6 in experiment [3].

Turning to `Oc1ccc(C(=C2CCC(CCF)CC2)c2ccc(O)cc2)cc1` (configuration not stated), in experiment [1], the Ratio amounted to 1.2. Besides, the figures for the relative binding affinity (RBA) in experiment [2] and in experiment [3] were 15.9 and 18.9, respectively.

For the molecule `Oc1ccc(C(=C2CCC2)c2ccc(O)cc2)cc1`, the Ratio in experiment [1] turned out to be 3.7. Besides, the relative binding affinity (RBA) in experiment [2] was determined as 5.61; in experiment [3] it was 20.5.

Consider `CC1CCC(=C(c2ccc(O)cc2)c2ccc(O)cc2)CC1` (configuration not stated), for which the Ratio in experiment [1] came to 4.1. Besides, the figures for the relative binding affinity (RBA) in experiment [2] and in experiment [3] were 66.5 and 274, respectively.

For `COC(=O)C1CCCC(=C(c2ccc(O)cc2)c2ccc(O)cc2)C1` (configuration not stated), the Ratio in experiment [1] came to 1.5. Besides, the results for the relative binding affinity (RBA) in experiment [2] and in experiment [3] were 23.7 and 36.5, respectively.

Turning to `Oc1ccc(C(=C2CCC(CF)CC2)c2ccc(O)cc2)cc1` (configuration not stated), the Ratio in experiment [1] worked out at 2.3. Also, the relative binding affinity (RBA) amounted to 18.1 in experiment [2] and 41.5 in experiment [3].

As to `Oc1ccc(C(=C2CCCC(CCCF)C2)c2ccc(O)cc2)cc1` (configuration not stated), the Ratio in experiment [1] came out at 0.57. In addition, the relative binding affinity (RBA) in experiment [2] was 160; in experiment [3], 91.4.

On to `Oc1ccc(C(=C2CCC(CCOCCCCF)CC2)c2ccc(O)cc2)cc1` (configuration not stated), for which the Ratio in experiment [1] worked out at 0.38. In addition, the relative binding affinity (RBA) in experiment [2] was found to be 3.77; in experiment [3] it was 1.45.

Take `OCC1CCC(=C(c2ccc(O)cc2)c2ccc(O)cc2)CC1` (configuration not stated): in experiment [1], the Ratio was determined as 0.99. For the same molecule, the relative binding affinity (RBA) came to 0.846 in experiment [2] and 0.841 in experiment [3].

As for `Oc1ccc(C(=C2CCCCC2)c2ccc(O)cc2)cc1`, the Ratio in experiment [1] stood at 2.3. For the same molecule, the relative binding affinity (RBA) turned out to be 124 in experiment [2] and 285 in experiment [3].

`OCCC1CCC(=C(c2ccc(O)cc2)c2ccc(O)cc2)CC1` (configuration not stated): the Ratio in experiment [1] came out at 0.14. Moreover, the relative binding affinity (RBA) in experiment [2] worked out at 2.61; in experiment [3] it was 0.372.

With `Oc1ccc(C(=C2CCCC2)c2ccc(O)cc2)cc1`, in experiment [1], the Ratio was 7.7. Moreover, the relative binding affinity (RBA) in experiment [2] turned out to be 17.8; in experiment [3], 137.

The values are drawn from ChEMBL document CHEMBL1146101, “Fluorine-substituted cyclofenil derivatives as estrogen receptor ligands: synthesis and structure-affinity relationship study of potential positron emission tomography agents for imaging estrogen receptors in breast cancer” (J Med Chem, 2006).
